Source: US8802895B2, “Amide derivatives of benzene-sulfonanilide, pharmaceutical composition thereof and method for cancer treatment using the same” (Cleveland State University, priority 2010, dated 2014)
Read-outs that look alike come from different tables or passages of the source.

Assays:
[1] = tested on: SKBR-3 cells; experiment: MTT cell viability assay with SKBR-3 cells; format: cell-based; conditions: Homo sapiens, SK-BR-3
Method: SKBR-3 cells were obtained from ATCC (Rockville, Md.). […] Bovine serum was heat inactivated for 30 min in a 56° C. water bath before use. Cell cultures were grown at 37° C., in a humidified atmosphere of 5% CO2 in a Hereaus CO2 incubator. For all experiments, cells were seeded in 96 well plates with 5000 cells/well density.
Cells were grown in custom medium in 96-well, flat-bottomed plates for 24 h, and were exposed to various concentrations of nimesulide derivatives dissolved in DMSO (final concentration≦0.1%) in media for different time intervals. Controls received DMSO vehicle at a concentration equal to that in drug-treated cells. […] Supernatants were removed from the wells, and the reduced 3-(4,5-dimethylthiazol-2-yl)-2,5-diphenyl-2H-tetrazolium bromide dye was solubilized in 200 μl/well DMSO. Absorbance at 570 nm was determined on a plate reader.

[2] = tested on: cells; experiment: Primary mechanism study: cell viability with compound #10 and 2-APB (FIG. 10); format: cell-based; conditions: 2-APB added two hours before compound #10; cell viability after 48 hours
[3] = SKBR-3 cells, cell viability, read-out: IC50

| SMILES | IC50 [1, 3] [nM] | further results |
| --- | --- | --- |
| COc1ccc(OC)c(COc2cc(NC(=O)c3ccc(OC)c(OC)c3)ccc2N(C)S(C)(=O)=O)c1 [Compound #44, N-[3-(2,5-dimethoxyl-benzyloxy)-4-(methanesulfonyl-methyl-amino)-phenyl]-3,4-dimethoxy-benzamide] | 2.6 ± 1.3 |  |
| COc1ccc(C(=O)Nc2ccc(N(C)S(C)(=O)=O)c(OCc3cc(OC)ccc3OC)c2)cc1 [Compound #41, N-[3-(2,5-dimethoxy-benzyloxy)-4-(methanesulfonyl-methyl-amino)-phenyl]-4-methoxy-benzamide] | 0.87 ± 0.33 |  |
| COc1ccc(OC)c(COc2cc(NC(=O)c3ccc4c(c3)OCO4)ccc2N(C)S(C)(=O)=O)c1 [Compound #43, N-[3-(2,5-dimethoxyl-benzyloxy)-4-(methanesulfonyl-methyl-amino)-phenyl]-1,3-benzodioxole-5-carboxamide] |  | IC50 [1]: 7.5 ± 2.8 nM |
| NCCOB(c1ccccc1)c1ccccc1 [Compound 2-APB, 2-aminoethoxydiphenyl borate, reference compound] |  | rescue of cell death from compound #10 treatment (cell viability) [2]: can partially rescue the cell death from compound #10 treatment |
| COc1ccc(OC)c(COc2cc(NC(=O)c3ccc(Br)cc3)ccc2N(C)S(C)(=O)=O)c1 [Compound #42, N-[3-(2,5-dimethoxy-benzyloxy)-4-(methanesulfonyl-methyl-amino)-phenyl]-4-bromobenzamide] |  | IC50 [1]: 3.5 ± 1.9 nM |

Second part, led by results:

| IC50 [1, 3] [nM] | SMILES | further results |
| --- | --- | --- |
| 16.6 ± 7.7 | COc1ccc(OC)c(COc2cc(NC(=O)c3ccc4ccccc4c3)ccc2N(C)S(C)(=O)=O)c1 [Compound #45, N-[3-(2,5-dimethoxyl-benzyloxy)-4-(methanesulfonyl-methyl-amino)-phenyl]-2-naphthalenecarboxamide] |  |
| 1.8 ± 0.7 | COc1ccc(OC)c(COc2cc(NC(=O)c3ccc(I)cc3)ccc2N(C)S(C)(=O)=O)c1 [Compound #40, N-[3-(2,5-dimethoxyl-benzyloxy)-4-(methanesulfonyl-methyl-amino)-phenyl]-4-iodo-benzamide] |  |
